One data set relates to CCRF-CEM. Nature of the data set: Antiviral activity in HIV-infected CEM cells using whole cell assay. The data set is classed as functional, cell-based. Conditions: Homo sapiens.
Data set [1] addresses Human immunodeficiency virus type 1 protease (Human immunodeficiency virus 1, UniProt Q72874). The data set can be described thus: Inhibitory activity against human immunodeficiency virus protease (HIVP) using protease inhibition assay.
Data set [2] in a line: Peak oral plasma concentration was determined in rats by oral administration. The data set is classed as ADME, organism-based. More on the design: route oral. Conditions: rat.

Here are results for eight molecules from ChEMBL document CHEMBL1128866, “Isophthalic acid derivatives: amino acid surrogates for the inhibition of HIV-1 protease” (Bioorg Med Chem Lett, 1995).

A value given as a limit tells only on which side of the number the result lay.

As a reminder, the IC50 is the concentration needed to halve the response being measured. Low readings indicate greater potency, high ones weaker potency. In turn, `CC(C)(C)NC(=O)[C@@H]1C[C@@H]2CCCC[C@@H]2CN1C[C@@H](O)[C@H](Cc1ccccc1)NC(=O)[C@H](CC(N)=O)NC(=O)c1ccc2ccccc2n1` came in with an IC50 in the data set on CCRF-CEM of 2 nM. This lies in the single-digit nanomolar range.

Turning to `CC(C)(C)NC(=O)c1ccccc1C[C@@H](O)[C@H](Cc1ccccc1)NC(=O)c1cccc(C(=O)N2CCc3ccccc3C2)c1`, in data set [1], half-maximal inhibition (IC50) required 50 nM.

In general, Cmax refers to the highest concentration seen after dosing. On to `Cc1ccc(C(=O)N(C)Cc2ccccn2)cc1C(=O)N[C@@H](Cc1ccccc1)[C@H](O)CN1C[C@H]2CCCC[C@H]2C[C@H]1C(=O)NC(C)(C)C`, for which the peak level in data set [2] (Cmax) was 4400 nM. The half-maximal inhibitory concentration (IC50) turned out to be 77 nM in the data set on CCRF-CEM and 8.6 nM in data set [1].

For `Cc1cc(C(=O)N[C@@H](Cc2ccccc2)[C@H](O)Cc2ccccc2C(=O)NC(C)(C)C)cc(C(=O)N2CCc3ccccc3C2)c1`, inhibition in data set [1] was half-maximal at 500 nM (IC50).

`Cc1ccc(C(=O)N[C@@H](Cc2ccccc2)[C@H](O)Cc2ccccc2C(=O)NC(C)(C)C)cc1C(=O)N1CCc2ccccc2C1`: in data set [1], the IC50 came out at 670 nM.

Regarding `CC(C)(C)NC(=O)c1ccccc1C[C@@H](O)[C@H](Cc1ccccc1)NC(=O)[C@H](CC(N)=O)NC(=O)c1ccc2ccccc2n1`, the Cmax in data set [2] is less than 100 nM. The molecule further returned a half-inhibitory concentration (IC50) in the data set on CCRF-CEM of 27 nM.

In data set [1], `Cc1ccc(C(=O)N2CCc3ccccc3C2)cc1C(=O)N[C@@H](Cc1ccccc1)[C@H](O)Cc1ccccc1C(=O)NC(C)(C)C` displayed a 50% inhibitory concentration (IC50) of 6.1 nM.

Molecule `Cc1ccc(C(=O)N2CCc3ccccc3C2)cc1C(=O)N[C@@H](Cc1ccccc1)[C@H](O)CN1C[C@H]2CCCC[C@H]2C[C@H]1C(=O)NC(C)(C)C` returned a Cmax in data set [2] of less than 100 nM. For the same molecule, the IC50 came out at 1400 nM in the data set with CCRF-CEM and 13.8 nM in data set [1].
